Experimental data published in US20260083865A1, “PROSTATE SPECIFIC MEMBRANE ANTIGEN (PSMA) LIGANDS AND USE THEREOF” (priority 2022, published 2026).
“Also recorded” adds a separate entry of the source. Numbered stars: 1 amine (or outer) side, 2 acyl side, 3 side chain; on linkers, the order of the positions; unused ones are H or OH. Bridge positions count the residues as written; N and C are the ends. Square brackets hold non-standard residues; d marks the D form. Peptide text beside a SMILES is read from it. * marks the point of attachment. DOTA = O=C(O)CN1CCN(CC(=O)O)CCN(CC(=O)*)CCN(CC(=O)O)CC1; Phe(4-Cl) = N[C@@H](Cc1ccc(Cl)cc1)C(=O)O; Arg(Me) = CNC(=N)NCCC[C@H](N)C(=O)O; X1 = O=C(CC1CCN([*:1])CC1)[*:2]; Lys(Me) = CNCCCC[C@H](N)C(=O)O; Tle = CC(C)(C)[C@H](N)C(=O)O; Aib = CC(C)(N)C(=O)O

System: PSMA-expressing ST1273 tumors
Assay: Efficacy study in mice with PSMA-expressing ST1273 tumors (tumor volume)
Type: in vivo
Source text: The efficacy of ^177Lu-PSM-0194 (PSM-0194 labeled with radioactive Lutetium-177) was investigated in the PDX tumor model ST1273. […] The ST1273 PDX model was developed at XenoSTART (San Antonio, Texas, USA) and PSMA expression was confirmed by immunohistochemistry.
ST1273 tumor fragments were transplanted subcutaneously at the right flank of female NMRI nu/nu mice. In brief, the parent animals with ST1273 PDX tumors for transplantation were euthanized by cervical dislocation. The tumors were resected and trimmed to remove the connective tissues. The tumors were put in a Petri dish with PBS and cut with a scalpel into pieces of approximately 5×5×5 mm. Recipient mice were anesthetized (isoflurane, 1-3% in ambient air supplemented with 100% O2) and an incision cut in the skin on the back. Room was made for the tumor between the muscle and skin with forceps. The tumor pieces were dipped in PBS before being placed under the skin with forceps. The incision was closed with a 7 mm wound clip. Another incision was cut in the skin on the back, where a testosterone rod was inserted subcutaneously with forceps (PreclinApps, Testosterone MedRod 75 μg/day, drug release duration 100 days). The incision was closed with non-absorbable prolene 5-0 sutures and animals were chipped for identification and allowed to recover from anesthesia. Tumor growth and animal weight were measured twice a week starting 7 days after inoculation. Tumor size was measured by caliper and the volume was estimated using the following formula 0.52×(length×width^2).
6-7 weeks after inoculation, three mice with ST1273 PDX tumors were dosed with ^177Lu-PSM-0194 and were subjected to SPECT/computed tomography scans. Tumor size measurement was continued for 42 days after dosing. In brief, PSM-0194 was labeled with radioactive Lutetium-177 with a molar activity of 30 MBq/nmol. An activity dose of 30 MBq per mouse was injected intravenously. The mice injected with ^177Lu—PSM-0194 underwent SPECT/computed tomography scans at 4, 24, and 72 hours p.i. to evaluate the distribution of ^177Lu-PSM-0194 in different tissues. Regions of interest (ROI) were drawn based on computed tomography images for the tumor and following organs: heart (estimate of blood), kidney (left), kidney (right), and tail. Uptake of ^177Lu-PSM-0194 (% ID/g, decay-corrected) in the corresponding ROI was determined by quantitative imaging analysis. […] Highest uptake in non-tumor organs was found in the kidneys with a favorable tumor-to-kidney ratio of 3.3-3.4.
The tumor size measurements were continued for 42 days after dosing. The effect of therapy ^177Lu—PSM-0194 on the tumor volume was evaluated for each individual mouse. […] Tumor volume continued declining to a nadir on day 20, with a mean tumor volume (MTV) of 16±16 mm^3 (mean SEM). […] For the calculation of relative volumes, the tumor volumes on the day of dosing (day 0) were set to 100%.

For `CNCCCC[C@@H]1NC(=O)[C@@H](NC(=O)[C@H](Cc2ccc(Cl)cc2)NC(=O)C(C)(C)NC(=O)[C@@H](NC(=O)CC2CCN(C(=O)CN3CCN(CC(=O)O)CCN(CC(=O)O)CCN(CC(=O)O)CC3)CC2)[C@@H](C)O)CSSC[C@@H](C(=O)N[C@H](C(=O)N[C@H](C(N)=O)[C@@H](C)O)C(C)(C)C)NC(=O)[C@H](CC(N)=O)NC(=O)C(C)(C)NC(=O)[C@H](CCCNC(=N)NC)NC1=O` [^177Lu-PSM-0194, metal not drawn] ({DOTA}-[X1]T[Aib][Phe(4-Cl)]C[Lys(Me)][Arg(Me)][Aib]NC[Tle]T-NH2; disulfide 5-10), the “effect of therapy on the tumor volume” value (ST1273 PDX mice, 30 MBq i.v., followed 42 days after dosing) was “reduction of the tumor volumes; also recorded: strong tumor regression and sustained tumor suppression”, the “start of re-growth of the tumor” value (animal M10, 30 MBq i.v.) was 23 days and the tumor volume (animal M10, day 42 after dosing, 30 MBq i.v.) was 407 mm^3. For the same molecule, the “mean tumor volume (MTV) at nadir” value (day 20 after dosing, 30 MBq i.v., three mice, mean SEM) was 16±16 mm^3, the Tumor volumes (mouse M9, study day 2) was 390 mm^3 and the Relative tumor volume (mouse M9, study day 2, day 0 = 100%) was 112%. The Tumor volumes (mouse M9, study day 6) was 124 mm^3, the Relative tumor volume (mouse M9, study day 6, day 0 = 100%) was 36% and the Tumor volumes (mouse M9, study day 9) was 65 mm^3. The Relative tumor volume (mouse M9, study day 9, day 0 = 100%) was 19%, the Tumor volumes (mouse M9, study day 13) was 31 mm^3 and the Relative tumor volume (mouse M9, study day 13, day 0 = 100%) was 9.0%. For the same molecule, the Tumor volumes (mouse M9, study day 16) was 43 mm^3, the Relative tumor volume (mouse M9, study day 16, day 0 = 100%) was 12% and the Tumor volumes (mouse M9, study day 20) was 0 mm^3. It also gave a Relative tumor volume (mouse M9, study day 20, day 0 = 100%) of 0.0%, a Tumor volumes (mouse M9, study day 23) of 0 mm^3 and a Relative tumor volume (mouse M9, study day 23, day 0 = 100%) of 0.0%. The Tumor volumes (mouse M9, study day 27) was 0 mm^3, the Relative tumor volume (mouse M9, study day 27, day 0 = 100%) was 0.0% and the Tumor volumes (mouse M9, study day 30) was 0 mm^3. The Relative tumor volume (mouse M9, study day 30, day 0 = 100%) was 0.0%, the Tumor volumes (mouse M9, study day 34) was 0 mm^3 and the Relative tumor volume (mouse M9, study day 34, day 0 = 100%) was 0.0%. The Tumor volumes (mouse M9, study day 37) was 0 mm^3, the Relative tumor volume (mouse M9, study day 37, day 0 = 100%) was 0.0% and the Tumor volumes (mouse M9, study day 41) was 0 mm^3. For the same molecule, the Relative tumor volume (mouse M9, study day 41, day 0 = 100%) was 0.0%, the Tumor volumes (mouse M9, study day 42) was 0 mm^3 and the Relative tumor volume (mouse M9, study day 42, day 0 = 100%) was 0.0%. The Tumor volumes (mouse M10, study day 2) was 633 mm^3, the Relative tumor volume (mouse M10, study day 2, day 0 = 100%) was 134% and the Tumor volumes (mouse M10, study day 6) was 372 mm^3. For the same molecule, the Relative tumor volume (mouse M10, study day 6, day 0 = 100%) was 79%, the Tumor volumes (mouse M10, study day 9) was 346 mm^3 and the Relative tumor volume (mouse M10, study day 9, day 0 = 100%) was 73%. The Tumor volumes (mouse M10, study day 13) was 242 mm^3, the Relative tumor volume (mouse M10, study day 13, day 0 = 100%) was 51% and the Tumor volumes (mouse M10, study day 16) was 94 mm^3. It also gave a Relative tumor volume (mouse M10, study day 16, day 0 = 100%) of 20%, a Tumor volumes (mouse M10, study day 20) of 49 mm^3 and a Relative tumor volume (mouse M10, study day 20, day 0 = 100%) of 10%. The Tumor volumes (mouse M10, study day 23) was 66 mm^3, the Relative tumor volume (mouse M10, study day 23, day 0 = 100%) was 14% and the Tumor volumes (mouse M10, study day 27) was 113 mm^3. It also gave a Relative tumor volume (mouse M10, study day 27, day 0 = 100%) of 24%, a Tumor volumes (mouse M10, study day 30) of 114 mm^3 and a Relative tumor volume (mouse M10, study day 30, day 0 = 100%) of 24%. For the same molecule, the Tumor volumes (mouse M10, study day 34) was 172 mm^3, the Relative tumor volume (mouse M10, study day 34, day 0 = 100%) was 36% and the Tumor volumes (mouse M10, study day 37) was 289 mm^3. It also gave a Relative tumor volume (mouse M10, study day 37, day 0 = 100%) of 61%, a Tumor volumes (mouse M10, study day 41) of 608 mm^3 and a Relative tumor volume (mouse M10, study day 41, day 0 = 100%) of 129%. The Tumor volumes (mouse M10, study day 42) was 607 mm^3, the Relative tumor volume (mouse M10, study day 42, day 0 = 100%) was 129% and the Tumor volumes (mouse M12, study day 2) was 476 mm^3. It also gave a Relative tumor volume (mouse M12, study day 2, day 0 = 100%) of 53%, a Tumor volumes (mouse M12, study day 6) of 427 mm^3 and a Relative tumor volume (mouse M12, study day 6, day 0 = 100%) of 47%. For the same molecule, the Tumor volumes (mouse M12, study day 9) was 196 mm^3, the Relative tumor volume (mouse M12, study day 9, day 0 = 100%) was 23% and the Tumor volumes (mouse M12, study day 13) was 82 mm^3. It also gave a Relative tumor volume (mouse M12, study day 13, day 0 = 100%) of 9.1%, a Tumor volumes (mouse M12, study day 16) of 109 mm^3 and a Relative tumor volume (mouse M12, study day 16, day 0 = 100%) of 12%. For the same molecule, the Tumor volumes (mouse M12, study day 20) was 0 mm^3, the Relative tumor volume (mouse M12, study day 20, day 0 = 100%) was 0.0% and the Tumor volumes (mouse M12, study day 23) was 55 mm^3. It also gave a Relative tumor volume (mouse M12, study day 23, day 0 = 100%) of 6.1%, a Tumor volumes (mouse M12, study day 27) of 56 mm^3 and a Relative tumor volume (mouse M12, study day 27, day 0 = 100%) of 6.2%. The Tumor volumes (mouse M12, study day 30) was 58 mm^3, the Relative tumor volume (mouse M12, study day 30, day 0 = 100%) was 6.4% and the Tumor volumes (mouse M12, study day 34) was 47 mm^3. The Relative tumor volume (mouse M12, study day 34, day 0 = 100%) was 5.2%, the Tumor volumes (mouse M12, study day 37) was 67 mm^3 and the Relative tumor volume (mouse M12, study day 37, day 0 = 100%) was 7.4%. For the same molecule, the Tumor volumes (mouse M12, study day 41) was 74 mm^3, the Relative tumor volume (mouse M12, study day 41, day 0 = 100%) was 8.2% and the Tumor volumes (mouse M12, study day 42) was 81 mm^3. For the same molecule, the Relative tumor volume (mouse M12, study day 42, day 0 = 100%) was 9.0%.
